Assay [1] relates to Escherichia coli (β). Kind of assay: Shake culture with surfactant, time course of protein production (Example 1, FIG. 1). In kind it is cell-based. As to conditions: surfactant 1%; after 21 hours from the initiation. The procedure: Escherichia coli (β) was inoculated in 10 mL of an LB culture medium and was shake-cultured at 37° C. overnight. In this manner, a culture solution was prepared. The strains were collected using a centrifuge and the collected Escherichia coli (β) strain was resuspended in 10 ml of a TB culture medium (product of Difco). Shake culture at 37° C. induced expression of torA. Sampling was performed after 0, 0.5, 1, and 2 hours from the start of the shake culture, and harvesting using a centrifuge was carried out for each sampled solution. Collected bacterial cells were suspended in a buffer solution (50 mM Tris (pH 7.5), 100 mM NaCl) and ultrasonic fragmentation was performed (200 W, 10 minutes). Then, an SDS-PAGE analysis was performed to quantify the produced recombinant protein band. Based on the obtained data, the protein amount per gram of the bacterial cell was calculated and a graph was constructed.
The same processes were carried out as in Comparative Example 1 except that the surfactant A-7 was used as the surfactant (A) for the expression induction in an amount of 1% on the basis of the weight of the culture solution, and that sampling was performed after 0, 2, 4, 15, 19, and 21 hours from the initiation and analysis was performed on the supernatants of the centrifuged samples. A graph was similarly constructed.

For assay [2], the system named is Escherichia coli (β). Kind of assay: Screening of secretion efficiency, TorA expressing strain. In kind it is cell-based. To be noted: surfactant 1 wt %; 37° C., 1 hour; ELISA, anti-His-tag antibody. From the text: A torA gene of an Escherichia coli strain W3110 was amplified by the PCR method using primers 3 and 4 (Table 4). After being treated with restriction enzymes NdeI and BamHI, a PCR fragment was bound to an NdeI restriction enzyme site and a BamHI restriction enzyme site of a pET-22b plasmid (product of Novagen). Then, the plasmid was transformed into an AG1 (DE3) Escherichia coli strain to form a TorA expressing strain (β). Localization of the expressed TorA in a periplasmic fraction was confirmed by conducting an analysis based on the method disclosed in page 121 of Vol. 353 of METHODS IN ENZYMOLOGY (2002).
A pdxA gene of an Escherichia coli strain W3110 was amplified by the PCR method using primers 5 and 6 (Table 4). After being treated with restriction enzymes NdeI and BamHI, a PCR fragment was bound to an NdeI restriction enzyme site and a BamHI restriction enzyme site of a pET-22b plasmid (product of Novagen). Then, the plasmid was transformed into an AG1 (DE3) Escherichia coli strain to form a PdxA expressing strain (γ). Localization of the expressed PdxA in a cytoplasmic compartment was confirmed by conducting an analysis based on the method disclosed in page 121 of Vol. 353 of METHODS IN ENZYMOLOGY (2002). […]
(4) Then, the solution was allowed to stand at 37° C. for 1 hour. […] Here, the quantification of the recombinant protein in the resulting solution was carried out by ELISA assay with use of an anti-His-tag antibody. The sample prior to the centrifugation in the process (3) was treated with ultrasonic waves (200 W, 10 minutes) and the quantification of the recombinant protein therein was similarly carried out by ELISA assay with use of an anti-His-tag antibody. The ratio of lysed bacteria was obtained with use of Escherichia coli (γ), and the secretion efficiencies of the recombinant proteins of Escherichia coli (α) and (β) were calculated by using the following formula. […]
“Z” represents the ratio of lysed bacteria obtained with use of Escherichia coli (γ), which is determined by the following formula: Z=Z1/Z2. […]

The values that follow come from patent US9328369B2, “Process for production of useful substance, and surfactant for use in the process” (priority 2009, dated 2016).

Sodium cocaminopropionate [A-7]: in the assay with Escherichia coli (β) [1], the “Dried cell density of the culture solution” value is recorded as 1.72 g/L.

On to “Polyoxyethylene(3 mol)tridecyl ether sodium acetate [A-1]”, for which, in the assay with Escherichia coli (β) [2], the “Secretion efficiency (%) Escherichia coli (β)” value came out at 98.2%.

“Cured palm oil fatty acid amidopropyl dimethyl aminoacetate betaine [A-6]”: the “Secretion efficiency (%) Escherichia coli (β)” value with Escherichia coli (β) [2] stood at 85.4%.
